Experimental data from patent US9802949B2, “Fused ring compounds as hepatitis C virus inhibitors, pharmaceutical compositions and uses thereof” (SUNSHINE LAKE PHARMA CO., LTD., priority 2012, dated 2017).

How the values were obtained:
HCV GT1a replicon = experiment: HCV replicon assay (Huh-7 cells stably transfected with HCV GT1a replicon; luciferase or NEO gene qPCR readout); format: cell-based; settings: Hepatitis C virus, HCV 1a genotype replicon, 72 hours
Procedure: (§1) HCV Replicon System was utilized as a screening model in the present disclosure to evaluate the antivirus effects of the compounds disclosed herein against HCV. HCV Replicon assay was first described in Science, 1999, 285 (5424), 110-3. […] To determine the potential anti-HCV effects of the test compounds, luciferase assay and antibiotic Neomycin resistance gene were tested according to the method described in Science. 1999 Jul. 2; 285 (5424), 110-3 and J. Virol. 2003 March; 77 (5), 3007-19.
(§2) In a word, the compounds disclosed herein were tested by using human hepatic carcinoma cell line Huh-7 which is transfected stably with HCV GT1a, GT1b or GT2a replicon respectively, and resistant cells of Y93H, L31F, P32L or I302V and wild-type cells HCV 1b. HCV Replicon System disclosed herein contains G418 resistance gene NEO and Luciferase Reporter Gene, and the level of HCV replication in host cells is detected and characterized by the expression level of the NEO gene or Luciferase Reporter Gene, so the effects of the compounds herein inhibit HCV replication can be evaluated in this system. In this article, a real-time quantitative polymerase chain reaction (qPCR) method was used to detect NEO gene expression level, and chemiluminescence method was used to test Luciferase Reporter Gene expression level.
(§3) 1. Test Method for Measuring EC50 of the Compounds Based on Luciferase Assay.
(§4) The Huh-7 cells transfected with HCV replicons system were seeded into 96-well plates (8,000 cells in 125 μL/well) respectively; each test compound was diluted to desired concentration using 5-fold serial dilutions protocol, 10 doses in duplicate, and added to wells with POD™ 810 Plate Assembler. The plates were incubated in a CO2 incubator for 72 hours; after that, 40 μL of Luciferase assay substrate (Promega Bright-Glo) was added to each well, and detected by a chemiluminescence detection system (Topcount Microplate Scintillation and Luminescence Counter) 5 minutes later; the EC50 (half-maximal effective concentration, concentration for 50% of maximal effect) values of test compounds were analyzed by GraphPad Prism software. In this paper, experiments were repeated twice and set the wells without compounds as negative control.
(§5) 2. Test Method for Measuring EC50 of the Compounds by Detecting Antibiotic G418 Resistance Gene NEO Gene.
(§6) The Huh-7 cells transfected with HCV replicons system were seeded into 96-well plates (8,000 cells in 125 μL/well) respectively; each test compound was diluted to desired concentration using 5-fold serial dilutions protocol, 10 doses in duplicate, and added to each well with POD™ 810 Plate Assembler; the cells were incubated in a CO2 incubator for 72 hours; and detected the expression level of the NEO gene expression with real-time quantitative PCR later; the EC50 (half-maximal effective concentration, concentration for 50% of maximal effect) values of test compounds were analyzed by GraphPad Prism software, respectively. In this paper, experiments were repeated twice and set the wells without compounds as negative control.

HCV GT1b replicon = experiment: HCV replicon assay (Huh-7 cells stably transfected with HCV GT1b replicon; luciferase or NEO gene qPCR readout); format: cell-based; settings: Hepatitis C virus, HCV 1b genotype replicon, 72 hours
Procedure: as §1, §2, §3, §4, §5, §6

`COC(=O)N[C@H](C(=O)N1CCC[C@H]1c1nc(-c2ccc(-c3ccc(-c4ccc5nc([C@@H]6CCCN6C(=O)[C@@H](NC(=O)OC)C(C)C)[nH]c5c4)c4c3C3CCC3C4)c3c2CCC3)c[nH]1)C(C)C` (stereo partly drawn) [Example 22] was tested, and the EC50 (HCV GT1a replicon) was 233 pM and the EC50 (HCV GT1b replicon) was 82 pM.
`COC(=O)N[C@H](C(=O)N1CCC[C@H]1C1=Nc2cc(-c3ccc(C#Cc4cnc([C@@H]5CCCN5C(=O)[C@@H](NC(=O)OC)C5CCCCC5)[nH]4)c4c3CC3C(=O)CC43)ccc2C(C)(C)N1)C1CCCCC1` (stereo partly drawn) [Example 29] gave an EC50 (HCV GT1a replicon) of 7550 pM and an EC50 (HCV GT1b replicon) of 309 pM.
`COC(=O)N[C@H](C(=O)N1CC(F)(F)C[C@H]1c1ncc(-c2ccc(-c3ccc(-c4ccc5[nH]c([C@@H]6CC(F)(F)CN6C(=O)[C@@H](NC(=O)OC)C(C)C)nc5c4)c4c3C3CCC3C4)cc2)[nH]1)C(C)C` (stereo partly drawn) [Example 12] showed an EC50 (HCV GT1a replicon) of 80 pM and an EC50 (HCV GT1b replicon) of 27 pM.
Work on `COC(=O)N[C@H](C(=O)N1CCCC[C@H]1c1ncc(-c2ccc(-c3ccc(-c4ccc5nc([C@@H]6CCCCN6C(=O)[C@@H](NC(=O)OC)C(C)C)[nH]c5c4)c4c3C3CCC3C4)cc2)[nH]1)C(C)C` (stereo partly drawn) [Example 13] yielded an EC50 (HCV GT1a replicon) of 418 pM and an EC50 (HCV GT1b replicon) of 206 pM.
Compound `COC(=O)N[C@H](C(=O)N1CC(C)=C[C@H]1c1ncc(-c2ccc(-c3ccc(-c4cnc([C@@H]5C=C(C)CN5C(=O)[C@@H](NC(=O)OC)C(C)C)[nH]4)c4c3C3CCC3C4)cc2)[nH]1)C(C)C` (stereo partly drawn) [Example 21] has an EC50 (HCV GT1a replicon) of 68 pM and an EC50 (HCV GT1b replicon) of 15 pM.
`COC(=O)NC(C(=O)N1CCCC1c1nc2ccc(-c3ccc(-c4ccc(-c5cnc(C6CC7CC7N6C(=O)C(NC(=O)OC)C(C)C)[nH]5)cc4)c4c3CC3CCC43)cc2[nH]1)C(C)C` (stereo not drawn) [Example 37] was tested, and the EC50 (HCV GT1a replicon) was 63 pM and the EC50 (HCV GT1b replicon) was 16 pM.
In the case of `COC(=O)NC(C(=O)N1CCCC1c1ncc(-c2ccc(-c3ccc(-c4cnc(C5CCCN5C(=O)C(NC(=O)OC)C(C)C)[nH]4)c4c3C3CCC3C4)cc2)[nH]1)C(C)C` (stereo not drawn) [Example 35], the EC50 (HCV GT1a replicon) is reported as 548 pM and the EC50 (HCV GT1b replicon) is reported as 7 pM.
`COC(=O)N[C@H](C(=O)N1CCC[C@H]1c1ncc(-c2ccc(-c3ccc(-c4cnc([C@@H]5CCCN5C(=O)[C@@H](NC(=O)OC)C(C)C)[nH]4)c4c3C3CCCC3C4C)cc2)[nH]1)C(C)C` (stereo partly drawn) [Example 33] gave an EC50 (HCV GT1a replicon) of 82 pM and an EC50 (HCV GT1b replicon) of 30 pM.
`COC(=O)NC(C(=O)N1CCCC1c1ncc(-c2ccc(-c3ccc(-c4ccc5nc(C6CCCN6C(=O)C(NC(=O)OC)C(C)C)[nH]c5c4)c4c3C3CCC3C4)cc2)[nH]1)C(C)C` (stereo not drawn) [Example 38] was tested, and the EC50 (HCV GT1a replicon) was 58 pM and the EC50 (HCV GT1b replicon) was 13 pM.
`COC(=O)N[C@H](C(=O)N1CCC[C@H]1c1ncc(-c2ccc(-c3ccc(-c4ccc5nc([C@@H]6CCCN6C(=O)[C@@H](NC(=O)OC)C(C)C)[nH]c5c4)c4c3CC3CCC43)c3cnoc23)[nH]1)C(C)C` (stereo partly drawn) [Example 24] gave an EC50 (HCV GT1a replicon) of 207 pM and an EC50 (HCV GT1b replicon) of 118 pM.
Compound `COC(=O)N[C@H](C(=O)N1CCC[C@H]1C(=O)Nc1ccc(-c2ccc(-c3ccc4nc([C@@H]5CCCN5C(=O)[C@@H](NC(=O)OC)C(C)C)[nH]c4c3)c3c2CC2CCC32)cc1)C(C)C` (stereo partly drawn) [Example 27] has an EC50 (HCV GT1a replicon) of 1640 pM and an EC50 (HCV GT1b replicon) of 672 pM.
`COC(=O)N[C@H](C(=O)N1CCCC1c1nc2ccc(-c3ccc(-c4ccc5nc([C@@H]6CCCN6C(=O)[C@@H](NC(=O)OC)C(C)C)[nH]c5c4)c4c3C3C(=O)CCC3C4)cc2[nH]1)C(C)C` (stereo partly drawn) [Example 32] was tested, and the EC50 (HCV GT1a replicon) was 63 pM and the EC50 (HCV GT1b replicon) was 26 pM.
With `COC(=O)N[C@H](C(=O)N1CCC[C@H]1c1cc(=O)c2cc(-c3ccc(-c4ccc(-c5cnc([C@@H]6CCCN6C(=O)[C@@H](NC(=O)OC)c6ccccc6)[nH]5)cc4)c4c3C3(C)CCC3C4)ccc2[nH]1)c1ccccc1` (stereo partly drawn) [Example 30] the EC50 (HCV GT1a replicon) was 211 pM and the EC50 (HCV GT1b replicon) was 92 pM.
Compound `COC(=O)N[C@H](C(=O)N1CCC[C@H]1c1ncc(-c2ccc(-c3ccc(-c4ccc5nc([C@@H]6CCCN6C(=O)[C@@H](NC(=O)OC)C(C)C)[nH]c5c4)c4c3C3CCC3C4)nc2)[nH]1)C(C)C` (stereo partly drawn) [Example 8] has an EC50 (HCV GT1a replicon) of 66 pM and an EC50 (HCV GT1b replicon) of 28 pM.
`COC(=O)N[C@H](C(=O)N1CCC[C@H]1c1nc2ccc(-c3ccc(-c4ccc(-c5cnc([C@@H]6C7CCC(C7)N6C(=O)[C@@H](NC(=O)OC)C(C)C)[nH]5)cc4)c4c3C3CCC3C4)cc2[nH]1)C(C)C` (stereo partly drawn) [Example 2] was tested, and the EC50 (HCV GT1a replicon) was 71 pM and the EC50 (HCV GT1b replicon) was 21 pM.
In the case of `COC(=O)N[C@H](C(=O)N1CCC[C@H]1c1ncc(C#Cc2ccc(-c3ccc4nc([C@@H]5CCCN5C(=O)[C@@H](NC(=O)OC)C(C)C)[nH]c4c3)c3c2C2CCC2C3)[nH]1)C(C)C` (stereo partly drawn) [Example 6], the EC50 (HCV GT1a replicon) is reported as 243 pM and the EC50 (HCV GT1b replicon) is reported as 106 pM.
Work on `COC(=O)N[C@H](C(=O)N1[C@@H]2CC[C@@H](C2)[C@H]1c1ncc(-c2ccc(-c3ccc(-c4ccc5nc([C@@H]6[C@H]7CC[C@H](C7)N6C(=O)[C@@H](NC(=O)OC)C(C)C)[nH]c5c4)c4c3C3CCC3C4)cc2)[nH]1)C(C)C` (stereo partly drawn) [Example 19] yielded an EC50 (HCV GT1a replicon) of 217 pM and an EC50 (HCV GT1b replicon) of 44 pM.
For `COC(=O)N[C@H](C(=O)N1C2CC2C[C@H]1c1ncc(-c2ccc(-c3ccc(-c4ccc5nc([C@@H]6CC7CC7N6C(=O)[C@@H](NC(=O)OC)C(C)C)[nH]c5c4)c4c3C3CCC3C4)cc2)[nH]1)C(C)C` (stereo partly drawn) [Example 18], the EC50 (HCV GT1a replicon) was 83 pM and the EC50 (HCV GT1b replicon) was 30 pM.
Compound `COC(=O)N[C@@H](C)C(=O)N1CCCC1C1=Nc2cc(-c3ccc(-c4cnc([C@@H]5CCCN5C(=O)[C@H](C)NC(=O)OC)[nH]4)c4c3CC3CCC43)ccc2C2(COC2)N1` (stereo partly drawn) [Example 5] has an EC50 (HCV GT1a replicon) of 1040 pM and an EC50 (HCV GT1b replicon) of 119 pM.
`COC(=O)N[C@H](C(=O)N1CCC[C@H]1c1nc2ccc(-c3ccc(-c4ccc(-c5cnc([C@@H]6CC7CC7N6C(=O)[C@@H](NC(=O)OC)C(C)C)[nH]5)cc4)c4c3CC3CCC43)cc2[nH]1)C(C)C` (stereo partly drawn) [Example 3] showed an EC50 (HCV GT1a replicon) of 88 pM and an EC50 (HCV GT1b replicon) of 18 pM.
`COC(=O)N[C@H](C(=O)N1CCC[C@H]1c1ncc(-c2ccc(-c3ccc(-c4ccc5nc([C@@H]6CC7CC7N6C(=O)[C@@H](NC(=O)OC)C(C)C)[nH]c5c4)c4c3C3CCC3C4)cc2)[nH]1)C(C)C` (stereo partly drawn) [Example 11] gave an EC50 (HCV GT1a replicon) of 51 pM and an EC50 (HCV GT1b replicon) of 33 pM.
`CC(C)[C@H](NC(=O)Oc1ccccc1)C(=O)N1CC(C)(C)C[C@H]1c1ncc(-c2ccc(-c3ccc(-c4ccc5nc([C@@H]6CC(C)(C)CN6C(=O)[C@@H](NC(=O)Oc6ccccc6)C(C)C)[nH]c5c4)c4c3C3CCC3C4)cc2)[nH]1` (stereo partly drawn) [Example 16] gave an EC50 (HCV GT1a replicon) of 2550 pM and an EC50 (HCV GT1b replicon) of 879 pM.
In the case of `CC[C@H](C)[C@H](NC(=O)OC)C(=O)N1CCC[C@H]1C1=Nc2ccc(-c3ccc(-c4ccc5nc([C@@H]6CCCN6C(=O)[C@@H](NC(=O)OC)C(C)C)[nH]c5c4)c4c3CC3CCCC43)cc2S(=O)(=O)N1` (stereo partly drawn) [Example 31], the EC50 (HCV GT1a replicon) is reported as 83 pM and the EC50 (HCV GT1b replicon) is reported as 35 pM.
`COC(=O)NC(C(=O)N1CCCC1c1nc2ccc(-c3ccc(-c4ccc(-c5cnc(C6C7CCC(C7)N6C(=O)C(NC(=O)OC)C(C)C)[nH]5)cc4)c4c3C3CCC3C4)cc2[nH]1)C(C)C` (stereo not drawn) [Example 36] showed an EC50 (HCV GT1a replicon) of 935 pM and an EC50 (HCV GT1b replicon) of 10 pM.
`COC(=O)N[C@H](C(=O)N1CCC[C@H]1c1ncc(-c2ccc(-c3ccc(-c4ccc5nc([C@@H]6CCCN6C(=O)[C@@H](NC(=O)OC)C(C)C)[nH]c(=O)c5c4)c4c3C3CC(F)(F)C3C4)cc2)[nH]1)C(C)C` (stereo partly drawn) [Example 28] gave an EC50 (HCV GT1a replicon) of 22 pM and an EC50 (HCV GT1b replicon) of 8 pM.
Compound `COC(=O)N[C@H](C(=O)N1CCC[C@H]1c1ncc(-c2ccc(-c3ccc(-c4cnc([C@@H]5CCCN5C(=O)[C@@H](NC(=O)OC)C(C)C)[nH]4)c4c3C3CC(=O)CC3C4)cc2)[nH]1)C(C)C` (stereo partly drawn) [Example 34] has an EC50 (HCV GT1a replicon) of 75 pM and an EC50 (HCV GT1b replicon) of 22 pM.
In the case of `COC(=O)N[C@H](C(=O)N1CCC[C@H]1c1ncc(-c2ccc(-c3ccc(-c4ccc5nc([C@@H]6CCCN6C(=O)[C@@H](NC(=O)OC)C(C)C)[nH]c5c4)c4c3C3CCC3C4)c3ccccc23)[nH]1)C(C)C` (stereo partly drawn) [Example 23], the EC50 (HCV GT1a replicon) is reported as 449 pM and the EC50 (HCV GT1b replicon) is reported as 50 pM.
